Laboratory results taken from the supplement of paper PMC11665569.
± gives the standard deviation of the averaged measurements.

Legend:
H2030 = assay: relative viability (fraction of vehicle control); higher = more viable / less inhibited; conditions: treatment time: 5 days
Procedure: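 CCK-8 viability of H2030 cells transfected with control, YAP/TAZ or TEAD1-4 siRNAs and treated with KRAS G12C inhibitors for 5 days. Values are normalised to vehicle control.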

H358 = assay: as above; conditions: treatment time: 5 days
Procedure: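 CCK-8 viability of H358 cells with empty vector or constitutively active YAP S127A, treated with KRAS G12C inhibitors for 5 days. Absorbance at 450 nm normalised to vehicle control.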

Compound `C=CC(=O)N1CCN(c2nc(=O)n(-c3c(C)ccnc3C(C)C)c3nc(-c4c(O)cccc4F)c(F)cc23)[C@@H](C)C1` [AMG510] has a relative viability (H2030; log10 concentration (uM): 0, siRNA knockdown: TEAD1-4 siRNA 1) of 0.446 ± 0.028, a relative viability (H2030; log10 concentration (uM): 0, siRNA knockdown: TEAD1-4 siRNA 2) of 0.411 ± 0.011 and a relative viability (H2030; log10 concentration (uM): 0, siRNA knockdown: YAP/TAZ siRNA 1) of 0.25 ± 0.031. For the same compound, the relative viability (H2030; log10 concentration (uM): 0, siRNA knockdown: YAP/TAZ siRNA 2) was 0.224 ± 0.011, the relative viability (H2030; log10 concentration (uM): 0, siRNA knockdown: negative control siRNA) was 0.714 ± 0.069 and the relative viability (H2030; log10 concentration (uM): 1, siRNA knockdown: TEAD1-4 siRNA 1) was 0.345 ± 0.033. For the same compound, the relative viability (H2030; log10 concentration (uM): 1, siRNA knockdown: TEAD1-4 siRNA 2) was 0.325 ± 0.014, the relative viability (H2030; log10 concentration (uM): 1, siRNA knockdown: YAP/TAZ siRNA 1) was 0.257 ± 0.021 and the relative viability (H2030; log10 concentration (uM): 1, siRNA knockdown: YAP/TAZ siRNA 2) was 0.283 ± 0.041. The relative viability (H2030; log10 concentration (uM): 1, siRNA knockdown: negative control siRNA) was 0.56 ± 0.13, the relative viability (H2030; log10 concentration (uM): 1.301029996, siRNA knockdown: TEAD1-4 siRNA 1) was 0.193 ± 0.064 and the relative viability (H2030; log10 concentration (uM): 1.301029996, siRNA knockdown: TEAD1-4 siRNA 2) was 0.209 ± 0.032. For the same compound, the relative viability (H2030; log10 concentration (uM): 1.301029996, siRNA knockdown: YAP/TAZ siRNA 1) was 0.148 ± 0.015, the relative viability (H2030; log10 concentration (uM): 1.301029996, siRNA knockdown: YAP/TAZ siRNA 2) was 0.179 ± 0.0071 and the relative viability (H2030; log10 concentration (uM): 1.301029996, siRNA knockdown: negative control siRNA) was 0.403 ± 0.14. The relative viability (H2030; log10 concentration (uM): -1, siRNA knockdown: TEAD1-4 siRNA 1) was 0.504 ± 0.032, the relative viability (H2030; log10 concentration (uM): -1, siRNA knockdown: TEAD1-4 siRNA 2) was 0.556 ± 0.081 and the relative viability (H2030; log10 concentration (uM): -1, siRNA knockdown: YAP/TAZ siRNA 1) was 0.181 ± 0.025. It also gave a relative viability (H2030; log10 concentration (uM): -1, siRNA knockdown: YAP/TAZ siRNA 2) of 0.181 ± 0.023, a relative viability (H2030; log10 concentration (uM): -1, siRNA knockdown: negative control siRNA) of 0.737 ± 0.056 and a relative viability (H2030; log10 concentration (uM): -1.30103, siRNA knockdown: TEAD1-4 siRNA 1) of 0.514 ± 0.0015. For the same compound, the relative viability (H2030; log10 concentration (uM): -1.30103, siRNA knockdown: TEAD1-4 siRNA 2) was 0.445 ± 0.067, the relative viability (H2030; log10 concentration (uM): -1.30103, siRNA knockdown: YAP/TAZ siRNA 1) was 0.207 ± 0.031 and the relative viability (H2030; log10 concentration (uM): -1.30103, siRNA knockdown: YAP/TAZ siRNA 2) was 0.212 ± 0.032. The relative viability (H2030; log10 concentration (uM): -1.30103, siRNA knockdown: negative control siRNA) was 0.773 ± 0.079, the relative viability (H2030; log10 concentration (uM): -2, siRNA knockdown: TEAD1-4 siRNA 1) was 0.773 ± 0.064 and the relative viability (H2030; log10 concentration (uM): -2, siRNA knockdown: TEAD1-4 siRNA 2) was 0.606 ± 0.016. It also gave a relative viability (H2030; log10 concentration (uM): -2, siRNA knockdown: YAP/TAZ siRNA 1) of 0.348 ± 0.061, a relative viability (H2030; log10 concentration (uM): -2, siRNA knockdown: YAP/TAZ siRNA 2) of 0.333 ± 0.051 and a relative viability (H2030; log10 concentration (uM): -2, siRNA knockdown: negative control siRNA) of 0.883 ± 0.023. It also gave a relative viability (H2030; log10 concentration (uM): -2.30103, siRNA knockdown: TEAD1-4 siRNA 1) of 0.837 ± 0.039, a relative viability (H2030; log10 concentration (uM): -2.30103, siRNA knockdown: TEAD1-4 siRNA 2) of 0.67 ± 0.056 and a relative viability (H2030; log10 concentration (uM): -2.30103, siRNA knockdown: YAP/TAZ siRNA 1) of 0.471 ± 0.014. The relative viability (H2030; log10 concentration (uM): -2.30103, siRNA knockdown: YAP/TAZ siRNA 2) was 0.457 ± 0.05, the relative viability (H2030; log10 concentration (uM): -2.30103, siRNA knockdown: negative control siRNA) was 0.909 ± 0.034 and the relative viability (H2030; log10 concentration (uM): -3, siRNA knockdown: TEAD1-4 siRNA 1) was 0.939 ± 0.022. The relative viability (H2030; log10 concentration (uM): -3, siRNA knockdown: TEAD1-4 siRNA 2) was 0.875 ± 0.068, the relative viability (H2030; log10 concentration (uM): -3, siRNA knockdown: YAP/TAZ siRNA 1) was 0.812 ± 0.073 and the relative viability (H2030; log10 concentration (uM): -3, siRNA knockdown: YAP/TAZ siRNA 2) was 0.688 ± 0.1. It also gave a relative viability (H2030; log10 concentration (uM): -3, siRNA knockdown: negative control siRNA) of 0.969 ± 0.066, a relative viability (H2030; log10 concentration (uM): -4, siRNA knockdown: TEAD1-4 siRNA 1) of 1.05 ± 0.046 and a relative viability (H2030; log10 concentration (uM): -4, siRNA knockdown: TEAD1-4 siRNA 2) of 0.914 ± 0.035. It also gave a relative viability (H2030; log10 concentration (uM): -4, siRNA knockdown: YAP/TAZ siRNA 1) of 1.09 ± 0.037, a relative viability (H2030; log10 concentration (uM): -4, siRNA knockdown: YAP/TAZ siRNA 2) of 1.04 ± 0.03 and a relative viability (H2030; log10 concentration (uM): -4, siRNA knockdown: negative control siRNA) of 0.955 ± 0.069. The relative viability (H358; log10 concentration (uM): 0, ectopic expression: YAP S127A) was 0.42 ± 0.04, the relative viability (H358; log10 concentration (uM): 0, ectopic expression: empty vector (YAP experiment)) was 0.15 ± 0.017 and the relative viability (H358; log10 concentration (uM): 1, ectopic expression: YAP S127A) was 0.46 ± 0.053. It also gave a relative viability (H358; log10 concentration (uM): 1, ectopic expression: empty vector (YAP experiment)) of 0.183 ± 0.029, a relative viability (H358; log10 concentration (uM): 1.301029996, ectopic expression: YAP S127A) of 0.327 ± 0.19 and a relative viability (H358; log10 concentration (uM): 1.301029996, ectopic expression: empty vector (YAP experiment)) of 0.172 ± 0.025. It also gave a relative viability (H358; log10 concentration (uM): -1, ectopic expression: YAP S127A) of 0.453 ± 0.023, a relative viability (H358; log10 concentration (uM): -1, ectopic expression: empty vector (YAP experiment)) of 0.256 ± 0.025 and a relative viability (H358; log10 concentration (uM): -1.30103, ectopic expression: YAP S127A) of 0.52 ± 0.06. The relative viability (H358; log10 concentration (uM): -1.30103, ectopic expression: empty vector (YAP experiment)) was 0.433 ± 0.14, the relative viability (H358; log10 concentration (uM): -2, ectopic expression: YAP S127A) was 0.727 ± 0.12 and the relative viability (H358; log10 concentration (uM): -2, ectopic expression: empty vector (YAP experiment)) was 0.822 ± 0.048. For the same compound, the relative viability (H358; log10 concentration (uM): -2.30103, ectopic expression: YAP S127A) was 0.753 ± 0.046, the relative viability (H358; log10 concentration (uM): -2.30103, ectopic expression: empty vector (YAP experiment)) was 0.822 ± 0.14 and the relative viability (H358; log10 concentration (uM): -3, ectopic expression: YAP S127A) was 0.96 ± 0.072. The relative viability (H358; log10 concentration (uM): -3, ectopic expression: empty vector (YAP experiment)) was 0.828 ± 0.11, the relative viability (H358; log10 concentration (uM): -4, ectopic expression: YAP S127A) was 0.873 ± 0.031 and the relative viability (H358; log10 concentration (uM): -4, ectopic expression: empty vector (YAP experiment)) was 1.01 ± 0.082.
